Results on 1 compound are retold here after ChEMBL document CHEMBL1153943, “Exploring the pharmacokinetic properties of phosphorus-containing selective HDAC 1 and 2 inhibitors (SHI-1:2)” (Bioorg Med Chem Lett, 2009).

The source made the active and inactive calls. The calls are words filed in the database; no cut-off is given here.

The target of one series is Histone deacetylase 3 (Homo sapiens, UniProt O15379). Description: Inhibition of HDAC3.
The target of the next series is Histone deacetylase 1 (Homo sapiens, UniProt Q13547). The series is described as follows: Inhibition of HDAC1.
Sequence of Histone deacetylase 1 (Q13547 whole entry): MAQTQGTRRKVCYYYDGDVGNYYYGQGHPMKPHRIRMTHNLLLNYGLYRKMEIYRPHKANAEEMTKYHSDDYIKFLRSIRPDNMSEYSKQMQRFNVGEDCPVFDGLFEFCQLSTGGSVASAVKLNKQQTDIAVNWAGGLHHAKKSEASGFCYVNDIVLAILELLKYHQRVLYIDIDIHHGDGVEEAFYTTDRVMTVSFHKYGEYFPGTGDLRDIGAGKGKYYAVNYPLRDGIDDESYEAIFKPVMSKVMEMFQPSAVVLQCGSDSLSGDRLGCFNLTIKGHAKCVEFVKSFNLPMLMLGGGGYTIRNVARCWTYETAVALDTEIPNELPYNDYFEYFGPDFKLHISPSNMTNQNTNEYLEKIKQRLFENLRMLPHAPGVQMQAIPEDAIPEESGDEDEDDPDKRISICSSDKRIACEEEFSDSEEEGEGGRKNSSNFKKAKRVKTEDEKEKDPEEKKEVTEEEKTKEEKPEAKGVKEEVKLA
A further series concerns the target Histone deacetylase 2 (Homo sapiens, UniProt Q92769). The series is described as follows: Inhibition of HDAC2.
The subject of series [1] is Mus musculus. Description: Effect on histone H2B acetylation in human HCT116 cells xenografted in CD1 mouse assessed as change in ratio of acetylated to deacetylated histone level at 150 mg/kg, po QD for 3 days measured after 8 hrs. Format: functional, organism-based. More on the design: dose 150 mg/kg. As to conditions: HCT-116. On the technique in general: A xenograft is tissue or cells of one species grown in another, often human tumour cells in immunodeficient mice.

For another series, the target named is Histone deacetylase 4 (Homo sapiens, UniProt P56524). The series is described as follows: Inhibition of HDAC4.
Sequence of Histone deacetylase 4 (P56524 whole entry): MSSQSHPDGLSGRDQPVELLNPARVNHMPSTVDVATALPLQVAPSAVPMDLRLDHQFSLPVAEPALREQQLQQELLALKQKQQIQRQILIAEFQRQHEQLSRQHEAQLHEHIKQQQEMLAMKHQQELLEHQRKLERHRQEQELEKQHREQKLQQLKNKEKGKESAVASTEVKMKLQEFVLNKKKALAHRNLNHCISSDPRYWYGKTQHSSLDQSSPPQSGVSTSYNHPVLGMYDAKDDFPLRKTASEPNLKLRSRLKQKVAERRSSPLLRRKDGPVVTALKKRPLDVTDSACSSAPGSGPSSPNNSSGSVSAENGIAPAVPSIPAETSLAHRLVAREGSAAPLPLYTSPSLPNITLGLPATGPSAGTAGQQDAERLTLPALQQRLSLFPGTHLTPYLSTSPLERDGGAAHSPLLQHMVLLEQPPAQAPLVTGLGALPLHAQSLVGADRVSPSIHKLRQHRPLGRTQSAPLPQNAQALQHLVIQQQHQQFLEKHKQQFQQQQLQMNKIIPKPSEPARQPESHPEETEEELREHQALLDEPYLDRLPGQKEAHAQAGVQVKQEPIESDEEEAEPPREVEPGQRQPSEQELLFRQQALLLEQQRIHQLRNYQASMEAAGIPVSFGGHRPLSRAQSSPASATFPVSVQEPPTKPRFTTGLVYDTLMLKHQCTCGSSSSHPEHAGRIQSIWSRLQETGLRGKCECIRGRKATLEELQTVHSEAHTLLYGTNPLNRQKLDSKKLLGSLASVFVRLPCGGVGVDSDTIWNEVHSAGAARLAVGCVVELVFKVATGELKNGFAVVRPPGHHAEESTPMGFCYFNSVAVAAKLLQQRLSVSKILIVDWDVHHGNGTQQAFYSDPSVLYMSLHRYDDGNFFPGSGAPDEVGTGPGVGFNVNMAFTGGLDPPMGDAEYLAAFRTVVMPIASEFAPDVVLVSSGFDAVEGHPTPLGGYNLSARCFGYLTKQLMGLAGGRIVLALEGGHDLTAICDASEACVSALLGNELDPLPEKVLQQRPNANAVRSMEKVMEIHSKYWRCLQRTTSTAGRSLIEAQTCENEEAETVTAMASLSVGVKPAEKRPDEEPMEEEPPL
For a further series, the target named is Histone deacetylase 5 (Homo sapiens, UniProt Q9UQL6). Description: Inhibition of HDAC5.
Sequence of Histone deacetylase 5 (Q9UQL6 whole entry): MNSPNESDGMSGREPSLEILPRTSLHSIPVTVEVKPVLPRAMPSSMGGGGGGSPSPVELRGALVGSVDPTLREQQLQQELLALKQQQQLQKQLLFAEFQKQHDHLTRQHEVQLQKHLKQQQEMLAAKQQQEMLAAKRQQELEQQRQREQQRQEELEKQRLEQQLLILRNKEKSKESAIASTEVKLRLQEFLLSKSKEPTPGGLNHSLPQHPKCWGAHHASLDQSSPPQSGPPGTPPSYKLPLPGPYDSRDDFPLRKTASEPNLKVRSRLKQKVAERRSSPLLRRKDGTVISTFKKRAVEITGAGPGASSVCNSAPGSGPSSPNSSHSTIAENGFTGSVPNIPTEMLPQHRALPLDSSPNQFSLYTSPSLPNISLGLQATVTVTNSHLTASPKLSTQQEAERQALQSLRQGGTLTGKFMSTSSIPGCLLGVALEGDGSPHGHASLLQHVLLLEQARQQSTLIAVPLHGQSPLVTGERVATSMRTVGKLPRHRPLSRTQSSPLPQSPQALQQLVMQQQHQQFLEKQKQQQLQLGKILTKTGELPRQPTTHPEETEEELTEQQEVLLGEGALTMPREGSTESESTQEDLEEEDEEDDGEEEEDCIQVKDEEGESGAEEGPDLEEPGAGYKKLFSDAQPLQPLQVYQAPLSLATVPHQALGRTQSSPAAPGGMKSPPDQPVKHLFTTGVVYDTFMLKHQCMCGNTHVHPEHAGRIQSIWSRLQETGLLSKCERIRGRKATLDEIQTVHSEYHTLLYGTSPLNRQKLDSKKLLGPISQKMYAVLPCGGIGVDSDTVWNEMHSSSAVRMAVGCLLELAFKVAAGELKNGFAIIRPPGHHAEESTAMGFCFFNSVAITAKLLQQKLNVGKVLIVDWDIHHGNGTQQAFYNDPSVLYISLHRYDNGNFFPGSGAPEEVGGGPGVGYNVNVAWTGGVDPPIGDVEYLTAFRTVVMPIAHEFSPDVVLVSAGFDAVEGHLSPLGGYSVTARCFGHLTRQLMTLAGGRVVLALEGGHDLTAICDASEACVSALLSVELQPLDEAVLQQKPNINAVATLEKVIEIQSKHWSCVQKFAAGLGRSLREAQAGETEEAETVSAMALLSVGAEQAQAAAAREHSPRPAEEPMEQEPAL
For series [2], the target named is T1, Protein deacetylase HDAC6 (Homo sapiens, UniProt Q9UBN7).
T1 sequence (Q9UBN7 whole entry): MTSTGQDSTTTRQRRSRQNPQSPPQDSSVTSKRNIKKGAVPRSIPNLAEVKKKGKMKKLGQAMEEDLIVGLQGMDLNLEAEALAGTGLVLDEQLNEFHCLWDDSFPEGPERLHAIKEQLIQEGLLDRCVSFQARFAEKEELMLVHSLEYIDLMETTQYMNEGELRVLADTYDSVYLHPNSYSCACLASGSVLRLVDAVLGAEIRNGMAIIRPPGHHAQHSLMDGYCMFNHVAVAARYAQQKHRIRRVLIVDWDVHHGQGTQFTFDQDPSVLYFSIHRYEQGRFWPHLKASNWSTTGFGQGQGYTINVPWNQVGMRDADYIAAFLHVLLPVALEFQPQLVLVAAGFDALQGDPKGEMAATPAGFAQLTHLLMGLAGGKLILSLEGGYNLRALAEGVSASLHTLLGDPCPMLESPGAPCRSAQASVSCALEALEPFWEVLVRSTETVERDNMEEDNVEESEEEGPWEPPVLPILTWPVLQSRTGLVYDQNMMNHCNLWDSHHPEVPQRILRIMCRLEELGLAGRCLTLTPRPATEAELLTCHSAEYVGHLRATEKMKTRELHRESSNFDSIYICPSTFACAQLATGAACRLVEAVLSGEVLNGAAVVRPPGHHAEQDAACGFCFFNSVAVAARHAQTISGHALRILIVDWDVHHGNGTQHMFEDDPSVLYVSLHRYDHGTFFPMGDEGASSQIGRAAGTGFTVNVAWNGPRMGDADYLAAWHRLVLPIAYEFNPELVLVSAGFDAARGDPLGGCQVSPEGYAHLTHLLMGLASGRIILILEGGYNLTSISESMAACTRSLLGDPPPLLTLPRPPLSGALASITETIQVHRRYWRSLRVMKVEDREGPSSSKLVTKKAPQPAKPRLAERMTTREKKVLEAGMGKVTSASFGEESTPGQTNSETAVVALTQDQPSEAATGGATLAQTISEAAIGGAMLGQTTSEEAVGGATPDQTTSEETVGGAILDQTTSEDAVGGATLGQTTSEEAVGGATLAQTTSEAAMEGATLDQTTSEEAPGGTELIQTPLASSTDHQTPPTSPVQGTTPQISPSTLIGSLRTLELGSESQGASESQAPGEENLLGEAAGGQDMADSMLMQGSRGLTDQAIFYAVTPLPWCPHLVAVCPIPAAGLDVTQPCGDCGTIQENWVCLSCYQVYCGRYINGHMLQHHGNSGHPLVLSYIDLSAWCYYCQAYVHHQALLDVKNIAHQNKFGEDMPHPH
The series is described as follows: Inhibition of HDAC6.

In the next series the target is T2, Histone deacetylase 7 (Homo sapiens, UniProt Q8WUI4).
T2 sequence (Q8WUI4 whole entry): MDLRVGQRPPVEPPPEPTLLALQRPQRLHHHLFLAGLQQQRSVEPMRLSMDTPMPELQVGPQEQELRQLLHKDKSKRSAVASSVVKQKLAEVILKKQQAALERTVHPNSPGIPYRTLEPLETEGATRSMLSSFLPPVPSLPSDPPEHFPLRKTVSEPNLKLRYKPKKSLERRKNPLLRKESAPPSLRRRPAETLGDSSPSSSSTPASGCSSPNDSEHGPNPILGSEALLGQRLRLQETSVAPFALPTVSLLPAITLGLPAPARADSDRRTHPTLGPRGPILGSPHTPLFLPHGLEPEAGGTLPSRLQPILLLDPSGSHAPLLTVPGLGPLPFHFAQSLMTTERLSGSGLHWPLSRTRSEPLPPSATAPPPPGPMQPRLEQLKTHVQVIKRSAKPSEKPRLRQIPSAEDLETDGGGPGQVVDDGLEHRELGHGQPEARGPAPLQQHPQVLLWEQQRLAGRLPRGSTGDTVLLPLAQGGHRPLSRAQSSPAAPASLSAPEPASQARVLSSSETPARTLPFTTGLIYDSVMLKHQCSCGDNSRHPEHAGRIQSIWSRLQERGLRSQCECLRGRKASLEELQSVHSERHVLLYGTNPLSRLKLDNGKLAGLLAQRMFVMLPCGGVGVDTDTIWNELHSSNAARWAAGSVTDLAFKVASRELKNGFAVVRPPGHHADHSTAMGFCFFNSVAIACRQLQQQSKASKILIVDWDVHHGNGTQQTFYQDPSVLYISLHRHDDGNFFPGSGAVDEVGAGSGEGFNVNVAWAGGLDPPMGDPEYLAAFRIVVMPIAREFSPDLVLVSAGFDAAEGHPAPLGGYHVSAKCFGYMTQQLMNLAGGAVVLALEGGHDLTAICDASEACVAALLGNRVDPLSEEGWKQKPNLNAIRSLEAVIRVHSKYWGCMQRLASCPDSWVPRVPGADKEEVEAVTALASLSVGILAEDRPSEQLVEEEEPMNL
The series is described as follows: Inhibition of HDAC7.

Another series deals with T3, Histone deacetylase 8 (Homo sapiens, UniProt Q9BY41).
T3 sequence (Q9BY41 whole entry): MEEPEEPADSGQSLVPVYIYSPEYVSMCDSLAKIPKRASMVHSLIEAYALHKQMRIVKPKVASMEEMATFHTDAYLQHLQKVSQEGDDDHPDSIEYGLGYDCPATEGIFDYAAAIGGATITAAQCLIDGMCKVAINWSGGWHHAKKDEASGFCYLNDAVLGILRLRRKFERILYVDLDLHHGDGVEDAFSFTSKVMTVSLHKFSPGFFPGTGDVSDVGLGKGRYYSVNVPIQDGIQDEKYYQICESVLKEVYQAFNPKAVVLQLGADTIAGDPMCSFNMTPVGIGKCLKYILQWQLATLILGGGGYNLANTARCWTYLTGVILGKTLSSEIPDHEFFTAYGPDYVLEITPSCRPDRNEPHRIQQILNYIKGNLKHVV
Description: Inhibition of HDAC8.

The next series addresses T4, Histone deacetylase 11 (Homo sapiens, UniProt Q96DB2).
T4 sequence (Q96DB2 whole entry): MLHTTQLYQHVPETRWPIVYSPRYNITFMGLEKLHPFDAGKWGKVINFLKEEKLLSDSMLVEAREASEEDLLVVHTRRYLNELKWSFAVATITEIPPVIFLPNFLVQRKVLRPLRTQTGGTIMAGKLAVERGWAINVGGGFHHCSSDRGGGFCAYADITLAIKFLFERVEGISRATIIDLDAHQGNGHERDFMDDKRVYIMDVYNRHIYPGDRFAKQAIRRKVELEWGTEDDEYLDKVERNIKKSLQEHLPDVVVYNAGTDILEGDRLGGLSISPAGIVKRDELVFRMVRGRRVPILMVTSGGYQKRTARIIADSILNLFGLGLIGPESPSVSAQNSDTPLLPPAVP
Description: Inhibition of HDAC11.

Series [3] deals with HCT-116. The series is described as follows: Antiproliferative activity against human HCT116 cells after 72 hrs. Format: functional. Particulars: HCT-116, 72 h.
In series [4] the test system is HCT-116. The series is described as follows: Antitumor activity against human HCT116 cells xenografted in po dosed mouse assessed as reduction in tumor growth dosed daily for 21 days. Format: functional, organism-based.
For series [5], the system named is Mus musculus. Description: Toxicity in human HCT116 cells xenografted CD1 mouse at 150 to 300 mg/kg, po after 21 days. Format: organism-based, HCT-116. More on the design: dose 150-300 mg/kg, route oral. Particulars: in vivo, 504 h.

Sequence of Histone deacetylase 3 (O15379 whole entry): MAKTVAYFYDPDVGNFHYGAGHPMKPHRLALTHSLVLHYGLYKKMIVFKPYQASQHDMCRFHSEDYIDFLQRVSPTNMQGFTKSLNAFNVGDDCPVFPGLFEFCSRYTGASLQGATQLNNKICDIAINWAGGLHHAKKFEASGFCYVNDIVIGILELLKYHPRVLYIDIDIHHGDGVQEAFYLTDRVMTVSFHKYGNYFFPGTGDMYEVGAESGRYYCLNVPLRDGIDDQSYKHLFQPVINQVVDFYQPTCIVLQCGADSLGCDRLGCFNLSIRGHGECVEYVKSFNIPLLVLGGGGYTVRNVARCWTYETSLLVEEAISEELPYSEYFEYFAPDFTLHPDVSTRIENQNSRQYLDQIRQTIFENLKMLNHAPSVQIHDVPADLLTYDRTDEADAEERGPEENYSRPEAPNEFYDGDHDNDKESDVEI
Sequence of Histone deacetylase 2 (Q92769 whole entry): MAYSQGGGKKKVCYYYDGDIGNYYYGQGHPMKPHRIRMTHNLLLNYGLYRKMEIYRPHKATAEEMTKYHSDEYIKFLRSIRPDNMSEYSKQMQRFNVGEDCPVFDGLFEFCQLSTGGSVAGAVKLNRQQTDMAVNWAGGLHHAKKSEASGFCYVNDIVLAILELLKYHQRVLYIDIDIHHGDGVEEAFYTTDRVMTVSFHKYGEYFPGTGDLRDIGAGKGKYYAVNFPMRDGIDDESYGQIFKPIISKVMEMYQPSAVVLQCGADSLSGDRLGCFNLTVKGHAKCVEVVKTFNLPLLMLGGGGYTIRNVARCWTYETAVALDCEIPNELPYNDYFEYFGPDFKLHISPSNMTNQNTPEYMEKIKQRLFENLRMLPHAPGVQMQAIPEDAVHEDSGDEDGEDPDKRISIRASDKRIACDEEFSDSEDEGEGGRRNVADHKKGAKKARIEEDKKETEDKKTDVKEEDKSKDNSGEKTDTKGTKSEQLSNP

Regarding `CCOP(=O)(CNCc1ccc(C(=O)Nc2cc(-c3cccs3)ccc2N)cc1)OCC`, the 50% inhibitory concentration (IC50) – broadly, the concentration needed to halve the response being measured – against Histone deacetylase 3 was 12 µM; on Histone deacetylase 1 it was 0.0077 µM; on Histone deacetylase 2 it was 0.014 µM; against Histone deacetylase 4, greater than 50 µM; against Histone deacetylase 5, greater than 50 µM; in series [2], greater than 50 µM. For the same compound, the half-maximal inhibitory concentration (IC50) is greater than 50 µM at Histone deacetylase 7, 37 µM against Histone deacetylase 8 and greater than 50 µM against Histone deacetylase 11. Besides, the outcome with Mus musculus [1] was Active. Moreover, in the series with HCT-116 [3], the GI50 (commonly the concentration giving 50% growth inhibition) is 0.3 µM. The results for the Activity result in the series on HCT-116 [4] and with Mus musculus [5] were “Dose-dependent effect” and “Non-toxic”, respectively.
